Measured values as given in the supplement of paper PMC10307832.

What was measured:
Experiment in all cases: relative viability (nuclei count vs DMSO), 5 days (fraction); higher = more cells survive
[1] = compound: Cn1nnc2c(C(N)=O)ncn2c1=O [Temozolomide] + CC(C)C[C@H](NC(=O)[C@H](Cc1ccccc1)NC(=O)c1cnccn1)B(O)O [Bortezomib] (partner 0.002 µM)
Method in brief: (§1)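 Nuclei were stained with Hoechst during a one-step fixation (final 0.05% Triton X-100, 1% formaldehyde, 1 ug/ml Hoechst) carried out 5 days after dosing, then counted on 4× images. The cells, lung cancer lines in 1536-well plates, had been dosed by pin tool the day after seeding with one drug alone or a fixed anchor-drug dose plus five library-drug doses (not always all listed) in √10 steps. Relative viability is the nuclei count in treated wells divided by that in vehicle wells, and each value is the median of duplicate plates.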

[2] = compound: Cn1nnc2c(C(N)=O)ncn2c1=O [Temozolomide] + CC(=O)c1c(C)c2cnc(Nc3ccc(N4CCNCC4)cn3)nc2n(C2CCCC2)c1=O [Palbociclib] (partner 0.5 µM)
Method in brief: as §1

AZD5582 + Alpelisib = compound: C[C@@H](C(=O)N[C@@H](C1CCCCC1)C(=O)N2CCC[C@H]2C(=O)N[C@@H]3[C@@H](CC4=CC=CC=C34)OCC#CC#CCO[C@@H]5CC6=CC=CC=C6[C@@H]5NC(=O)[C@@H]7CCCN7C(=O)[C@H](C8CCCCC8)NC(=O)[C@H](C)NC)NC [AZD5582] + Cc1nc(NC(=O)N2CCC[C@H]2C(N)=O)sc1-c1ccnc(C(C)(C)C(F)(F)F)c1 [Alpelisib] (partner 2 µM)
Method in brief: as §1

Temozolomide + AZD7762 = compound: Cn1nnc2c(C(N)=O)ncn2c1=O [Temozolomide] + NC(=O)Nc1cc(-c2cccc(F)c2)sc1C(=O)N[C@H]1CCCNC1 [AZD7762] (partner 0.2 µM)
Method in brief: as §1

Row | Cell Line | relative viability ([1]; first compound 0.2 µM) | relative viability ([1]; first compound 0.6325 µM) | relative viability ([1]; first compound 2 µM) | relative viability ([1]; first compound 6.325 µM) | relative viability ([1]; first compound 20 µM) | relative viability ([2]; first compound 0.2 µM) | relative viability ([2]; first compound 0.6325 µM) | relative viability ([2]; first compound 2 µM) | relative viability ([2]; first compound 6.325 µM) | relative viability ([2]; first compound 20 µM) | relative viability (AZD5582 + Alpelisib; first compound 0.001581 µM) | relative viability (AZD5582 + Alpelisib; first compound 0.005 µM) | relative viability (AZD5582 + Alpelisib; first compound 0.01581 µM) | relative viability (AZD5582 + Alpelisib; first compound 0.05 µM) | relative viability (Temozolomide + AZD7762; first compound 0.2 µM) | relative viability (Temozolomide + AZD7762; first compound 0.6325 µM) | relative viability (Temozolomide + AZD7762; first compound 2 µM) | relative viability (Temozolomide + AZD7762; first compound 6.325 µM) | relative viability (Temozolomide + AZD7762; first compound 20 µM)
1 | 201T | 1.15 | 1.08 | 1.08 | 1.07 | 1.08 | 0.348 | 0.361 | 0.382 | 0.362 | 0.355 | 1.05 | 1.07 | 0.977 | 1.25 | 0.648 | 0.649 | 0.746 | 0.566 | 0.519
2 | H3255 |  | 0.755 | 0.849 | 0.824 | 0.213 |  | 0.315 | 0.302 | 0.312 | 0.297 | 0.596 | 0.587 | 0.629 | 0.498 |  | 0.839 | 0.878 | 0.808 | 0.257
3 | NCI-H1437 | 0.453 | 0.42 | 0.648 | 0.409 | 0.452 | 0.292 | 0.336 | 0.31 | 0.329 | 0.325 | 0.968 | 0.967 | 0.875 | 1.04 | 1.09 | 1.12 | 1.14 | 1.12 | 1.14
4 | NCI-H2347 | 1.34 | 1.05 | 0.995 | 0.836 | 1.07 | 0.442 | 0.473 | 0.388 | 0.408 | 0.474 | 0.901 | 1.05 | 0.975 | 0.991 | 0.572 | 0.743 | 0.757 | 0.792 | 0.706
5 | NCI-H2087 | 0.973 | 0.918 | 0.738 | 0.681 | 0.948 | 0.254 | 0.239 | 0.224 | 0.259 | 0.225 | 1.08 | 1.01 | 1.13 | 1.19 | 1.38 | 1.31 | 1.46 | 1.35 | 1.33
6 | NCI-H727 | 0.884 | 0.903 | 1.09 | 0.768 | 0.803 |  | 0.579 | 0.676 | 0.715 | 0.703 | 0.578 | 0.627 | 0.441 | 0.556 |  | 0.521 | 0.512 | 0.606 | 0.412
7 | NCI-H1734 | 1.07 | 0.871 | 0.963 | 0.771 | 0.949 | 0.359 | 0.398 | 0.349 | 0.355 | 0.353 | 0.729 | 0.761 | 0.705 | 0.903 | 0.642 | 0.623 | 0.646 | 0.488 | 0.559
8 | A-427 | 1 | 0.934 | 0.993 | 0.87 | 0.616 | 0.519 | 0.575 | 0.518 | 0.492 | 0.427 | 0.996 | 1.01 | 1.04 | 0.881 | 0.758 | 0.744 | 0.698 | 0.472 | 0.422
9 | NCI-H1915 | 0.972 | 0.96 | 0.933 | 0.729 | 0.354 | 0.546 | 0.483 | 0.521 | 0.399 | 0.228 | 1.01 | 1.06 | 1.09 | 1.13 | 0.757 | 0.652 | 0.584 | 0.281 | 0.27
10 | NCI-H1755 | 0.961 | 0.952 | 1.01 | 0.897 | 0.84 | 0.443 | 0.478 | 0.477 | 0.436 | 0.424 | 0.875 | 0.918 | 0.874 | 0.996 | 0.487 | 0.396 | 0.485 | 0.385 | 0.638
11 | NCI-H650 | 1.18 | 1.08 | 0.787 | 0.807 | 0.941 | 0.373 | 0.328 | 0.319 | 0.329 | 0.314 | 1.06 | 0.934 | 0.997 | 0.863 | 0.973 | 1.16 | 0.938 | 0.953 | 0.879
12 | NCI-H441 | 0.88 | 0.336 | 0.722 | 0.363 | 0.44 | 0.23 | 0.211 | 0.211 | 0.245 | 0.226 | 0.511 | 0.709 | 0.594 | 0.615 | 1.27 | 1.12 | 1.04 | 1.13 | 1.13
13 | NCI-H3122 | 1.01 | 1.1 | 1.04 | 0.937 | 1.04 | 0.206 | 0.202 | 0.175 | 0.174 | 0.153 | 0.774 | 0.858 | 0.836 | 0.307 | 1.02 | 1.05 | 1.01 | 0.922 | 0.934
14 | NCI-H1993 | 0.944 | 1.19 | 1.14 | 1.07 | 0.736 | 0.558 | 0.772 | 0.618 | 0.755 | 0.589 | 0.706 | 0.669 | 0.647 | 0.671 | 0.678 | 0.764 | 1.03 | 0.692 | 0.71
15 | BEN | 0.965 | 0.77 | 0.911 | 0.577 | 0.588 | 0.483 | 0.466 | 0.469 | 0.487 | 0.471 | 0.884 | 1.07 | 1.16 | 1.27 | 0.712 | 0.616 | 0.779 | 0.689 | 0.678
16 | NCI-H1792 | 0.969 | 0.988 | 1.01 | 0.641 | 0.953 | 0.569 | 0.654 | 0.638 | 0.663 | 0.619 | 0.616 | 0.738 | 0.651 | 0.939 | 0.9 | 0.775 | 0.711 | 0.532 | 0.676
17 | PC-14 | 0.94 | 0.872 | 0.943 | 0.83 | 1.04 | 0.706 | 0.515 | 0.472 | 0.527 | 0.415 | 0.834 | 1.03 | 0.927 | 0.971 | 0.361 | 0.402 | 0.322 | 0.275 | 0.15
